Results: paper PMC7362284, “Pharmacokinetic and Lipidomic Assessment of the In Vivo Effects of Parishin A-Isorhynchophylline in Rat Migraine Models” (Journal of Analytical Methods in Chemistry, 2020)
Like-named read-outs stand apart in the source and are kept apart here.

Test: Pharmacokinetic study in nitroglycerin-induced migraine model rats (plasma, HPLC-MS/MS)
Format: in vivo, rat
Settings: for CL/F / MRT last / MRT inf / Vd/F / half-life: female, Sprague-Dawley, po; for CL/F: read-out: CL z/F (converted); for MRT last: read-out: MRT (0 − t); for MRT inf: read-out: MRT (0 − ∞); for Vd/F: read-out: V z/F; for half-life: read-out: t1/2z (converted); for clearance rate (CL z/F), administration-alone group higher than the coadministration group: single administration versus PI coadministration
Description: Healthy Sprague-Dawley (SD) female rats weighing 180 g ± 20 were provided by Hunan SJA Laboratory Animal Co., Ltd. (animal license number: SCXK (Xiang) 2016-0002). Rats underwent adaptive feeding for one week and were fasted for 12 h. Rats had open access to water throughout the study. For pharmacokinetic analysis, 18 SD rats were randomly divided into 3 groups and 0.4 mL of nitroglycerin (dosage: 10 mg/kg) was injected into the forehead to establish the migraine model. […] For blood sampling, 0.3 mL of blood was taken from the rat orbit prior to drug administration and 0, 5, 15, 30, and 45 min and 1, 2, 4, 6, 8, 10, 12, and 24 h after administration. These blood samples were collected into EP tubes coated with heparin sodium. After centrifugation at 4000 rmp for 10 min, supernatants were collected and stored at −80°C.
The mixture was vortexed for 3 min and centrifuged for 10 min at 13000 rpm. 200 μL of supernatants was collected for LC/MS analysis. For GAS and PA assessments, 50 μL of geniposide (IS: 350 ng/mL) and 250 μL of methanol were added to 50 μL of the plasma sample. The mixture was vortexed for 3 min and centrifuged for 10 min at 13000 rpm. 200 μL of supernatants was collected into centrifuge tubes, dried in nitrogen, and dissolved in 200 μL of 5% acetonitrile solution (95 : 5, v : v).
For pharmacokinetic studies, the AB Sciex Triple Quad™ 4500 was used for detection. […] A flow rate of 0.5 mL/min was used with an injection volume of 2 μL. The gradient elution was 0.0–1.2 min, 5% B; 1.2–6.0 min, 5–35% B; 6.0–8.5 min, 35–95% B; 8.5–9.0 min, 5% B; and 9.0–10.0 min, 5% B. Under mass spectrometry conditions, the ESI positive ion mode with multiple reaction monitoring (MRM) was used for detection using the following parameters: ion source temperature = 550°C; ion spray voltage = 4500 V; curtain gas (nitrogen) = 25 psi; atomizing gas (GS 1) = 50 psi; auxiliary gas (GS 2) = 50 psi. […] The IS was pyrrolidone hydrochloride, m/z 357.1–134.1 (DP: 85 V; CE: 35 eV). For GAS and PA, the column temperature was controlled at 40°C; phase A was 0.1% aqueous formic acid, and phase B was acetonitrile; flow rate was 0.5 mL/min; injection volume was 2 μL. The gradient elution was as follows: 0.0–1.2 min, 5% B; 1.2–8.0 min, 5–95% B; 8.0–9.0 min, 95–5% B; 9.0–10.0 min, 5% B; […]. For mass spectrometry, the ESI negative ion mode with MRM mode detection was employed. Mass spectrometry parameters were as follows: ion source temperature = 550°C; ion spray voltage = −4500 V; curtain gas (nitrogen) = 25 psi; atomizing gas (GS 1) = 50 psi; auxiliary gas (GS 2) = 50 psi. Ion pairs were as follows: GAS, m/z 331.1–123.0 (DP: −60 V; CE: −20 V); PA, m/z 995.1–726.9 (DP: −165 V; CE: −39 V). The IS was geniposide, m/z 433.0–225 (DP: −165 V; CE: −20 eV).
DAS 3.2.8 software was used to analyze the plasma concentrations in the different groups across all experimental time points. Time-concentration curves were drawn using Sigma Plot 10.0. For lipidomics, raw data were converted to the common (mzData) format using Agilent MassHunter Qualitative Analysis B.08.00 software (Agilent Technologies, USA). In the R software platform, the XCMS program was used to assess peak identification times, retention time correction, and automatic integration pretreatments. Data were subjected to IS and weight normalization. Visualization matrices containing the sample name, m/z-RT pair, and peak area were obtained. […] After editing, data matrices were imported into SIMCA-P 13.0 (Umetrics, Umea, Sweden), mean-centered, and scaled to Pareto variance. Multivariate analysis was then conducted.

[1] = Combine: PI coadministered (ISO 40 mg/kg, PA 372.4 mg/kg) intragastric, migraine model rats, plasma
[2] = PI coadministration versus single administration, migraine model rats
[3] = Single: PA alone 372.4 mg/kg intragastric, migraine model rats, plasma
[4] = rat, in vivo, Single: PA alone 372.4 mg/kg intragastric, migraine model rats, plasma
[5] = Single: ISO alone 40 mg/kg intragastric, migraine model rats, plasma

Compound | AUC (0 − t) [1] | AUC (0 − ∞) [1] | C-max [1] | T-max [1] | AUC, coadministration higher than the administration-alone group [2] | half-life (t1/2z), coadministration higher than the administration-alone group [2] | AUC (0 − t) [5] | AUC (0 − ∞) [5] | C-max [5] | T-max [5] | CL/F (rat, in vivo, 40 mg/kg) | MRT last (rat, in vivo, 40 mg/kg) | MRT inf (rat, in vivo, 40 mg/kg) | Vd/F (rat, in vivo, 40 mg/kg) | half-life (rat, in vivo, 40 mg/kg) | clearance rate (CL z/F), administration-alone group higher than the coadministration group (migraine model rats) | also measured
OCc1ccc(O[C@@H]2O[C@H](CO)[C@@H](O)[C@H](O)[C@H]2O)cc1 [GAS, gastrodin] | 12757.67 μg/L ∗ h | 13028.09 μg/L ∗ h | 3853.50 µg/L | 1.08 h | 1.31 fold | 2.79 fold | – | – | – | – | – | – | – | – | – | – | MRT, coadministration higher than the single-administration group [2]: 1.84 fold; AUC (0 − t) [3]: 9934.28 μg/L ∗ h; AUC (0 − ∞) [3]: 9935.51 μg/L ∗ h; C-max [3]: 4082.17 µg/L; T-max [3]: 0.83 h; CL/F [4]: 640 mL/min/kg; MRT last [4]: 2.14 h; MRT inf [4]: 2.15 h; Vd/F [4]: 56.6 L/kg; half-life [4]: 1.02 h
CC[C@H]1CN2CC[C@@]3(C(=O)Nc4ccccc43)[C@@H]2C[C@@H]1/C(=C\OC)C(=O)OC [ISO, isorhynchophylline] | 1755.85 μg/L ∗ h | 1768.51 μg/L ∗ h | 867.07 µg/L | 0.58 h | 1.31 fold | 1.99 fold | 1340.01 μg/L ∗ h | 1340.09 μg/L ∗ h | 645.28 µg/L | 0.54 h | 1480 mL/min/kg | 1.76 h | 1.77 h | 242 L/kg | 1.9 h | 3.15 fold | –
CC[C@H]1CN2CC[C@]3(C(=O)Nc4ccccc43)[C@@H]2C[C@@H]1/C(=C\OC)C(=O)OC [RHY, rhynchophylline] | 412.82 μg/L ∗ h | 455.57 μg/L ∗ h | 94.10 µg/L | 0.96 h | 1.44 fold | 3.46 fold | 313.95 μg/L ∗ h | 314.00 μg/L ∗ h | 88.35 µg/L | 0.63 h | 5530 mL/min/kg | 3.21 h | 3.21 h | 663 L/kg | 1.63 h | 3.16 fold | –
O=C(CC(O)(CC(=O)OCc1ccc(O[C@@H]2O[C@H](CO)[C@@H](O)[C@H](O)[C@H]2O)cc1)C(=O)OCc1ccc(O[C@@H]2O[C@H](CO)[C@@H](O)[C@H](O)[C@H]2O)cc1)OCc1ccc(O[C@@H]2O[C@H](CO)[C@@H](O)[C@H](O)[C@H]2O)cc1 [PA, parishin A] | – | – | – | – | – | – | – | – | – | – | – | – | – | – | – | – | stability in plasma (rat, in vivo): unstable; stability in rats (rat, in vivo): unstable
